Experimental data published in PubChem BioAssay AID2060892 (Molecular Pharmacology Branch, DTP, NCI, 2025).

Tested on: HOP-62 complex spheroids with HUVEC/MSC, viability
Experiment: Anticancer human tumor HOP-62 cell line growth inhibition [RAS];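 note: spheroids exposed to agents for seven days before readout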;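 for viability, T/C: 100% = DMSO vehicle control viability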
Details: for IC50: curve of first compound; for viability, T/C: stronger effect = lower value
Summary of the method: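 Tumour cells grown as complex spheroids with HUVEC endothelial cells and mesenchymal stem cells, treated with RAS pathway inhibitor combinations. Each agent spans half-log steps from near clinical Cmax, or 10 microM where Cmax is unknown.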

[1] = second compound 0.000949 µM, first compound 0.0316 µM
[2] = second compound 0.000949 µM, first compound 0.1 µM
[3] = second compound 0.000949 µM, first compound 0.316 µM
[4] = second compound 0.000949 µM, first compound 1 µM
[5] = second compound 0.000949 µM, first compound 3.16 µM
[6] = second compound 0.000949 µM, first compound 10 µM
[7] = second compound 0.003 µM, first compound 0.0316 µM
[8] = second compound 0.003 µM, first compound 0.1 µM
[9] = second compound 0.003 µM, first compound 0.316 µM
[10] = second compound 0.003 µM, first compound 1 µM
[11] = second compound 0.003 µM, first compound 3.16 µM
[12] = second compound 0.003 µM, first compound 10 µM
[13] = second compound 0.00949 µM, first compound 0.0316 µM
[14] = second compound 0.00949 µM, first compound 0.1 µM
[15] = second compound 0.00949 µM, first compound 0.316 µM
[16] = second compound 0.00949 µM, first compound 1 µM
[17] = second compound 0.00949 µM, first compound 3.16 µM
[18] = second compound 0.00949 µM, first compound 10 µM
[19] = second compound 0.03 µM, first compound 0.0316 µM
[20] = second compound 0.03 µM, first compound 0.1 µM
[21] = second compound 0.03 µM, first compound 0.316 µM
[22] = second compound 0.03 µM, first compound 1 µM
[23] = second compound 0.03 µM, first compound 3.16 µM
[24] = second compound 0.03 µM, first compound 10 µM
[25] = second compound 0.0949 µM, first compound 0.0316 µM
[26] = second compound 0.0949 µM, first compound 0.1 µM
[27] = second compound 0.0949 µM, first compound 0.316 µM
[28] = second compound 0.0949 µM, first compound 1 µM
[29] = second compound 0.0949 µM, first compound 3.16 µM
[30] = second compound 0.0949 µM, first compound 10 µM
[31] = second compound 0.3 µM, first compound 0.0316 µM
[32] = second compound 0.3 µM, first compound 0.1 µM
[33] = second compound 0.3 µM, first compound 0.316 µM
[34] = second compound 0.3 µM, first compound 1 µM
[35] = second compound 0.3 µM, first compound 3.16 µM
[36] = second compound 0.3 µM, first compound 10 µM

CC1(O)CCCC1n1c(=O)c(C(F)F)cc2cnc(NC3CCN(S(C)(=O)=O)CC3)nc21 (centres undefined) + CCn1c(-c2cc(N3CCN(C)CC3)cnc2C(C)OC)c2c3cc(ccc31)-c1csc(n1)CC(NC(=O)C1CC1C)C(=O)N1CCCC(N1)C(=O)OCC(C)(C)C2
IC50 (second compound 0.000949 µM): 5.05 µM
IC50 (second compound 0.003 µM): 3.77 µM
IC50 (second compound 0.00949 µM): 1.06 µM
IC50 (second compound 0.03 µM): < 0.0316 µM
IC50 (second compound 0.0949 µM): < 0.0316 µM
IC50 (second compound 0.3 µM): < 0.0316 µM
viability, T/C [1]: 104%
viability, T/C [2]: 87.2%
viability, T/C [3]: 57.5%
viability, T/C [4]: 80.3%
viability, T/C [5]: 83.6%
viability, T/C [6]: 2.49%
viability, T/C [7]: 87.4%
viability, T/C [8]: 65.2%
viability, T/C [9]: 58.9%
viability, T/C [10]: 62.3%
viability, T/C [11]: 61.1%
viability, T/C [12]: 2.49%
viability, T/C [13]: 69.7%
viability, T/C [14]: 53.8%
viability, T/C [15]: 57.8%
viability, T/C [16]: 46.5%
viability, T/C [17]: 40.6%
viability, T/C [18]: 2.35%
viability, T/C [19]: 49.7%
viability, T/C [20]: 44.1%
viability, T/C [21]: 36.5%
viability, T/C [22]: 49.3%
viability, T/C [23]: 23.2%
viability, T/C [24]: 2.84%
viability, T/C [25]: 32.5%
viability, T/C [26]: 33.9%
viability, T/C [27]: 33.8%
viability, T/C [28]: 37.1%
viability, T/C [29]: 19.5%
viability, T/C [30]: 3.11%
viability, T/C [31]: 36.9%
viability, T/C [32]: 34.2%
viability, T/C [33]: 34.3%
viability, T/C [34]: 30.9%
viability, T/C [35]: 20.8%
viability, T/C [36]: 3.29%

CCC(CC)c1cc(NC2CCC(N)C2)n2nccc2n1 (centres undefined) + CCn1c(-c2cc(N3CCN(C)CC3)cnc2C(C)OC)c2c3cc(ccc31)-c1csc(n1)CC(NC(=O)C1CC1C)C(=O)N1CCCC(N1)C(=O)OCC(C)(C)C2
IC50 (second compound 0.000949 µM): 2.04 µM
IC50 (second compound 0.003 µM): 1.89 µM
IC50 (second compound 0.00949 µM): 1.56 µM
IC50 (second compound 0.03 µM): 1.27 µM
IC50 (second compound 0.0949 µM): 1.02 µM
IC50 (second compound 0.3 µM): 0.0316 µM
viability, T/C [1]: 116%
viability, T/C [2]: 125%
viability, T/C [3]: 94.3%
viability, T/C [4]: 128%
viability, T/C [5]: 9.48%
viability, T/C [6]: 1.8%
viability, T/C [7]: 91.4%
viability, T/C [8]: 99.2%
viability, T/C [9]: 91.5%
viability, T/C [10]: 121%
viability, T/C [11]: 8.75%
viability, T/C [12]: 1.01%
viability, T/C [13]: 74.9%
viability, T/C [14]: 63.3%
viability, T/C [15]: 80%
viability, T/C [16]: 93.5%
viability, T/C [17]: 5.73%
viability, T/C [18]: 0.77%
viability, T/C [19]: 54%
viability, T/C [20]: 56.3%
viability, T/C [21]: 57.9%
viability, T/C [22]: 81.2%
viability, T/C [23]: 2.62%
viability, T/C [24]: 0.93%
viability, T/C [25]: 40.1%
viability, T/C [26]: 49.5%
viability, T/C [27]: 52.8%
viability, T/C [28]: 61.5%
viability, T/C [29]: 2.26%
viability, T/C [30]: 2.34%
viability, T/C [31]: 33.1%
viability, T/C [32]: 43.1%
viability, T/C [33]: 47.9%
viability, T/C [34]: 50.8%
viability, T/C [35]: 6.58%
viability, T/C [36]: 1.42%
